Test results: ChEMBL document CHEMBL1142130, “Quinolone resistance in Helicobacter pylori isolates in Germany” (2007)
≈ marks a conversion by molar mass, not a printed value.

Experiments:
Type in all cases: functional
Helicobacter pylori [1] = assay: Antimicrobial activity against ciprofloxacin-resistant Helicobacter pylori 4 containing gyrA C261G mutation by Etest method
Helicobacter pylori [2] = assay: Antimicrobial activity against ciprofloxacin-resistant Helicobacter pylori 14 containing gyrA A272G mutation by Etest method
Helicobacter pylori [3] = assay: Antimicrobial activity against ciprofloxacin-resistant Helicobacter pylori 12 containing gyrA G271A mutation by Etest method
Helicobacter pylori [4] = assay: Antimicrobial activity against ciprofloxacin-resistant Helicobacter pylori 4 containing gyrA G271T mutation by Etest method
Helicobacter pylori [5] = assay: Antimicrobial activity against ciprofloxacin-resistant Helicobacter pylori 26 containing gyrA C261A mutation by Etest method

Question: What does the source list for `O=C(O)c1cn(C2CC2)c2cc(N3CCNCC3)c(F)cc2c1=O` [CIPROFLOXACIN]?
Answer: MIC (Helicobacter pylori [1]): 4 µg/mL (≈ 12.1 µM); MIC (Helicobacter pylori [2]): 16 µg/mL (≈ 48.3 µM); MIC (Helicobacter pylori [3]): 16 µg/mL (≈ 48.3 µM); MIC (Helicobacter pylori [4]): 8 µg/mL (≈ 24.1 µM); MIC (Helicobacter pylori [5]): 4 µg/mL (≈ 12.1 µM)
